Drawing on patent US8415357B2 (Canbas Co., Ltd., priority 2007, dated 2013), this text covers IC50 for 55 compounds.

This test concerns Jurkat cells. The test can be described thus: Adaptation to G2 cell cycle arrest (G1 increment) in X-ray pre-arrested Jurkat cells, flow cytometry. To be noted: Homo sapiens, Jurkat, 24 h, concentration causing half-maximal increase of % cells in G1 phase (G1 increment), Jurkat pre-arrested by 10 Gy X-ray, 24 hours with compound. It counts as cell-based, human. The protocol:
Phenotype-based screening was used to measure the ability of compounds of the invention to cause adaptation to G2 cell cycle arrest in G2-arrested cells. Adaptation to G2 cell cycle arrest and re-entry into the cell cycle can result in death of the previously G2-arrested cell, or suppression (inhibition) of further proliferation of the previously G2-arrested cell. In a non-limiting embodiment, the ability to cause adaptation to G2 cell cycle arrest was measured by contacting cells in which G2 arrest had been induced by irradiation (e.g., gamma (γ) radiation or X-ray radiation), with compounds of the invention at various concentrations and, for each compound at each concentration, determining the percentage of cells that escaped G2 arrest and re-entered the cell cycle, by determining the percentage of cells in G1 phase. The IC50 value for each compound was calculated as the dosage (usually in μM) that caused half-maximal increase of the percentage of cells in G1 phase (the G1 increment) measured for that compound. Certain invention compounds were initially identified by phenotype-based screening of small molecule libraries for activity against G2-arrested cells as described above.
Jurkat cells (a human T cell lymphoma-derived cell line) were arrested at the G2 phase by X-ray irradiation at 10 Gy, and cultured for 24 hours in 10% fetal calf serum (FCS)/RPMI1640 at 37° C. with 5% CO2/air. (FCS was from Equitech-Bio, Kerrville, Tex., and RPMI1640 was from Sigma-Aldrich, St. Louis, Mo.) Test compounds were added to the medium at the indicated doses, and the cells were cultured under the conditions described above, for an additional 24 hours before harvesting.
Harvested cells were stained with Krishan's buffer (0.1% sodium citrate, 50 μg/ml propidium iodide, 20 μg/ml RNase A, 0.5% Nonidet P-40) and analyzed by flow cytometry (BD Biosciences, Franklin Lakes, N.J.) to identify the cell stage of each cell in the sample. Cells in G1 phase were identified by having […] (2N) DNA content.
The IC50 value for each compound was calculated as the dosage showing half maximal activity to induce the increase of the percentage of cells in G1 phase (the G1 increment). IC50 values were used to measure the activity of compounds and to determine structure-activity relationships.
Pre-arrested Jurkat cells were prepared as described in Example 1. Briefly, Jurkat cells were subjected to X-ray irradiation at a dose of 10 Gy, and cultured for 24 hours in 10% fetal calf serum (FCS)/RPMI1640 at 37° C. with 5% CO2/air, after which time cells were exposed to various concentrations of test compounds, and cultured under the conditions described above for an additional 24 hours before harvesting. Harvested cells were stained with Krishan's buffer (0.1% sodium citrate, 50 μg/ml propidium iodide, 20 μg/ml RNase A, 0.5% Nonidet P-40) and analyzed by flow cytometry (BD Biosciences, Franklin Lakes, N.J.) to identify the cell stage of each cell in the sample. Cells in G1 phase were identified by having […] (2N) DNA content.
The IC50 value for each compound was calculated as the dosage (concentration in μM) that caused half-maximal increase of the percentage of cells in G1 phase (the G1 increment) measured for that test compound. Table 1 below presents the structure, mass, 1H NMR values, and […] values for representative compounds.
The IC50 value for each compound was calculated as the dosage (concentration in μM) that caused half-maximal increase of the percentage of cells in G1 phase (the G1 increment) measured for that test compound. Table 2 below presents structures, IUPAC name, molecular formula, ID number (“SCID”), mass, 1H NMR values, and IC50 values for representative compounds. Table 3 presents structures, IUPAC name, molecular formula, ID number (“SCID”), mass, 1H NMR values, and IC50 values for further representative compounds.
In general terms: In flow cytometry, cells or beads pass a laser one at a time.

As a reminder, the IC50 is the midpoint of a concentration-inhibition curve. As to `CC1=C(C)C(=O)N(Nc2cc(C(F)(F)F)cc(C)n2)C1=O` [Compound S00069], the 50% inhibitory concentration (IC50) (Table 1) amounted to 5 µM.
On to `CC1=C(C)C(=O)N(Nc2ccc(C(F)(F)F)cn2)C1=O` [Compound S00073], for which the IC50 (Table 1) came to 2.5 µM.
Same read-out and setting: next, `CC1=C(C)C(=O)N(N(C)c2cc(C(F)(F)F)cc(C)n2)C1=O` [Compound S00084]: 5 µM.
On the same count and under the same terms, to `CC1=C(C)C(=O)N(Cc2ccc(C(F)(F)F)cc2)C1=O` [Compound S00088] belongs 10 µM; to `CC1=C(C)C(=O)N(Nc2nc(Cl)ccc2C(F)(F)F)C1=O` [Compound S00108], 20 µM.
Same read-out and setting: to `CC1=C(C)C(=O)N(Cc2ccc(C(F)(F)F)cn2)C1=O` [Compound S00110] belongs 60 µM; to `CC1C(=O)N(Nc2ccc(C(F)(F)F)cn2)C(=O)C1Sc1ccccc1` (stereo not drawn) [Compound S00145], 30 µM.
Take `CC1=C(C)C(=O)N(N(C)c2ccc(C(F)(F)F)c(Cl)n2)C1=O` [Compound S00170]: the IC50 (Table 1) is 0.12 µM and the IC50 (Table 2) came to 0.12 µM.
On to `O=C1C2=C(CCCC2)C(=O)N1Nc1ccc(C(F)(F)F)c(Cl)n1` [Compound S00186, 2-{[6-chloro-5-(trifluoromethyl)-2-pyridyl]amino}-4,5,6,7-tetrahydroisoindole-1,3-dione], for which the half-inhibitory concentration (IC50) reads like this: (Table 1) 0.63 µM; (Table 2) 0.625 µM.
Regarding `O=C1C2=C(CCCC2)C(=O)N1Nc1ccc(C(F)(F)F)cn1` [Compound S00200], the IC50 (Table 1) is 5 µM.
As for `CC1=C(C)C(=O)N(Cc2ccc(Cl)c(C(F)(F)F)c2)C1=O` [Compound S00201], under “Table 1”, the IC50 is 10 µM.
Same read-out and setting: to `CC1=C(c2ccccc2)C(=O)N(Nc2ccc(C(F)(F)F)c(Cl)n2)C1=O` [Compound S00257] belongs 10 µM.
The same measure, in the same setting: next, `CC1=C(C)C(=O)N(Nc2ccc(C)cc2C)C1=O` [Compound S00294]: 5 µM; `CC1=C(C)C(=O)N(Nc2nc3ccccc3s2)C1=O` [Compound S00295]: 5 µM.
With `CC1=C(C)C(=O)N(Nc2cccc(C(F)(F)F)c2)C1=O` [Compound S00305], for the setting “Table 1”, the half-inhibitory concentration (IC50) turned out to be 5 µM.
The same measure, in the same setting: to `CC1=C(C)C(=O)N(Nc2cc(Cl)ccc2C)C1=O` [Compound S00319] belongs 10 µM.
The same measure, in the same setting: to `CC1=CC(=O)N(Nc2ccc(C(F)(F)F)c(Cl)n2)C1=O` [Compound S00333] belongs 15 µM.
On the same count and under the same terms, next, `CC1=C(C)C(=O)N(Nc2ccc3ccccc3n2)C1=O` [Compound S00362]: 5 µM.
As to `CC1=C(C)C(=O)N(Nc2ccc(Cl)c(C(F)(F)F)c2)C1=O` [Compound S00405], the IC50 (Table 1) is 2.5 µM.
For the compound `O=C1C(Cl)=C(Cl)C(=O)N1Nc1cccc(C(F)(F)F)c1` [Compound S00406], the IC50 (Table 1) stood at 80 µM.
As for `CC1=C(C)C(=O)N(Cc2ccc(C(F)(F)F)cc2Cl)C1=O` [Compound S00408], where the note is “Table 1”, the 50% inhibitory concentration (IC50) worked out at 10 µM.
Same read-out and setting: next, `O=C1C(Cl)=C(Cl)C(=O)N1Cc1ccc(C(F)(F)F)cc1` [Compound S00409]: 20 µM; `COC1=C(C)C(=O)N(Cc2ccc(C(F)(F)F)cc2)C1=O` [Compound S00410]: 10 µM; `CC1=C(C)C(=O)N(Cc2ccc(C(F)(F)F)c(F)c2)C1=O` [Compound S00412]: 10 µM.
On the same count and under the same terms, next, `COc1nc(NN2C(=O)C(C)=C(C)C2=O)ccc1C(F)(F)F` [Compound S00451]: 60 µM; `CC1=C(C)C(=O)N(Nc2ccc(C)c(C)c2)C1=O` [Compound S00452]: 10 µM.
Still for that read-out and setting: next, `CC1=C(C)C(=O)N(Nc2nc3ccc(F)cc3s2)C1=O` [Compound S00454]: 4 µM.
For `CC1=C(C)C(=O)N(Nc2cc(Cl)cc(Cl)c2)C1=O` [Compound S00456], for the setting “Table 1”, the IC50 was 2.5 µM.
Still for that read-out and setting: next, `CC1=C(C)C(=O)N(Nc2cc(C(F)(F)F)cc(C(F)(F)F)c2)C1=O` [Compound S00474]: 2.5 µM.
The same measure, in the same setting: next, `CC1=C(C)C(=O)N(Nc2cccc3ccccc23)C1=O` [Compound S00475]: 3.75 µM; `CC1=C(C)C(=O)N(Nc2ccc(C(C)(C)C)cc2)C1=O` [Compound S00479]: 2.5 µM; `CSCc1cc(C(F)(F)F)ccc1NN1C(=O)C(C)=C(C)C1=O` [Compound S00499]: 5 µM.
On the same count and under the same terms, to `CC1=C(C)C(=O)N(Nc2cc(C(F)(F)F)ccc2C)C1=O` [Compound S00512] belongs 5 µM.
Consider `CC1=C(C)C(=O)N(Cc2ccc(C(F)(F)F)c(Cl)c2)C1=O` [Compound S00513], for which the IC50 (Table 1) amounted to 5 µM.
As for `CC1=C(C)C(=O)N(Nc2ccc(-c3ccccc3)cc2)C1=O` [Compound S00515], the concentration for half-maximal inhibition (IC50) (Table 1) is 20 µM.
On to `CC1=C(C)C(=O)N(Nc2ccc(Br)c(C(F)(F)F)c2)C1=O` [Compound S00516, 1-{[4-bromo-3-(trifluoromethyl)phenyl]amino}-3,4-dimethylazoline-2,5-dione], for which the 50% inhibitory concentration (IC50) amounted to 1.25 µM (Table 1) and 0.625 µM (Table 2).
For the compound `CC1=C(C)C(=O)N(C(C)c2ccc(Br)cc2)C1=O` (stereo not drawn) [Compound S00543], where the note is “Table 1”, the IC50 was found to be 60 µM.
Regarding `CC1=C(C)C(=O)N(Nc2ccc3cccc(Cl)c3n2)C1=O` [Compound S00585, 1-[(8-chloro(2-quinolyl))amino]-3,4-dimethylazoline-2,5-dione], the concentration for half-maximal inhibition (IC50) by setting is: (Table 1) 0.45 µM; (Table 2) 0.3 µM.
Regarding `CC1=C(C)C(=O)N(N(C)c2cc(Cl)cc(Cl)c2)C1=O` [Compound S00587], under “Table 1”, the IC50 amounted to 2.5 µM.
With `CC1=C(C)C(=O)N(Nc2nc3ccc(Cl)cc3s2)C1=O` [Compound S00590], the IC50 (Table 1) turned out to be 5 µM.
Same read-out and setting: to `CC1=C(C)C(=O)N(Nc2ccc3cc(Cl)ccc3n2)C1=O` [Compound S00622] belongs 5 µM.
Consider `CC1=C(C)C(=O)N(Nc2cc(C(F)(F)F)ccc2Br)C1=O` [Compound S00623], for which the concentration for half-maximal inhibition (IC50) (Table 1) worked out at 10 µM.
Turning to `CC1=C(C)C(=O)N(Nc2ccc(C(F)(F)F)cc2Br)C1=O` [Compound S00624], the IC50 (Table 1) is 10 µM.
On the same count and under the same terms, next, `CC1=C(C)C(=O)N(Nc2cccc(C(C)(C)C)c2)C1=O` [Compound S00627]: 2 µM; `CC1=C(C)C(=O)N(Oc2ccc(C)cc2)C1=O` [Compound S00628]: 60 µM; `CC1=C(C)C(=O)N(Nc2cc(C(C)(C)C)ccc2Br)C1=O` [Compound S00649]: 10 µM.
In the case of `CC1=C(C)C(=O)N(Nc2ccc3ccccc3c2)C1=O` [Compound S00651], the IC50 (Table 1) was found to be 10 µM.
As for `CC1=C(C)C(=O)N(N2CCc3cc(C)ccc32)C1=O` [Compound S00662], the IC50 (Table 1) amounted to 60 µM.
The same measure, in the same setting: next, `CC1=C(C)C(=O)N(n2ccc3cc(C)ccc32)C1=O` [Compound S00663]: 40 µM; `CC1=C(C)C(=O)N(Nc2ccc(C)c(C(F)(F)F)c2)C1=O` [Compound S00697]: 2.5 µM; `CC1=C(C)C(=O)N(Nc2ccc3c(c2)C(C)(C)CCC3(C)C)C1=O` [Compound S00698]: 5 µM.
On to `CC1=C(C)C(=O)N(Nc2ccc(C(F)(F)F)cc2Cl)C1=O` [Compound S00699], for which, under “Table 1”, the IC50 was 10 µM.
With `CC1=C(C)C(=O)N(Nc2ccc(Cl)c3ccccc23)C1=O` [Compound S00738, 1-[(4-chloronaphthyl)amino]-3,4-dimethylazoline-2,5-dione], the half-inhibitory concentration (IC50) amounted to 0.63 µM (Table 1) and 0.625 µM (Table 2).
As for `CC1=C(C)C(=O)N(Nc2nc3c(Cl)cccc3s2)C1=O` [Compound S00756], the IC50 (Table 1) came to 1.25 µM.
Consider `CC1=C(C)C(=O)N(Nc2cc(Cl)c(Cl)c(Cl)c2)C1=O` [Compound S00832, 3,4-dimethyl-1-[(3,4,5-trichlorophenyl)amino]azoline-2,5-dione], for which the IC50 (Table 2) is 0.3 µM.
